≈ marks a conversion by molar mass, not a printed value. Entries after “also recorded” stand apart in the source; their conditions may differ. Like-named read-outs stand apart in the source and are kept apart here.
Tests used:
S. aureus HPC308 = test: Antibacterial activity, MIC by agar dilution; assay type: cell-based; settings: Staphylococcus aureus, clinically isolated strain, gram +
Excerpt: (§1) The strains employed were as follows:
(§2) Staphylococcus aureus (S. aureus)

S. aureus HPC527 = test: Antibacterial activity, MIC by agar dilution; assay type: cell-based; settings: Staphylococcus aureus, clinically isolated strain, gram +
Excerpt: as §1, §2

S. aureus HPC292 = test: Antibacterial activity, MIC by agar dilution; assay type: cell-based; settings: Staphylococcus aureus, clinically isolated strain, gram +
Excerpt: as §1, §2

S. aureus FDA 209P JC-1 = test: Antibacterial activity, MIC by agar dilution; assay type: cell-based; settings: Staphylococcus aureus, FDA209P; laboratory standard strain, gram +
Excerpt: as §1, §2

E. coli NIHJ JC-2 = test: Antibacterial activity, MIC by agar dilution; assay type: cell-based; settings: Escherichia coli, NIHJJC2; laboratory standard strain, gram -
Excerpt: as §1
Escherichia coli (E. coli)

[1] = Tissue distribution after oral administration, HPLC; assay type: in vivo, Sprague-Dawley rats; settings: for Kp: po, 5 mg/kg
Description: Seven-week-old male Sprague-Dawley rats were used. The test compounds were orally administered at a dose of 5 mg/kg to rats fasted overnight. At intervals of 0.083, 0.25, 0.5, 1, 2, 4, 6, 8, 12 and 24 h after administration, the rats were anesthetized with ether and blood samples were taken from the abdominal aorta. Plasma samples were obtained from the blood samples in the usual way. The lungs and kidneys were removed after collection of blood, and homogenated with 4 ml and 7 ml of 1 M HCl-citrate buffer (pH 4.0), respectively.
The concentration of the test compounds in the biological fluids (plasma and in each tissue tested) was determined by HPLC method. Hydrochloric acid and ether were added to 0.5 ml of plasma or 0.5 g of each tissue homogenate. The mixture was shaken and centrifuged. After the removal of the organic phase, aq. NaOH solution, phosphate buffer (pH 7.0) and chloroform were added to the aqueous phase. The mixture was shaken and centrifuged. The organic phase was then concentrated. The residue was dissolved and subjected to HPLC. The concentration of the test compounds in each biological fluid at Tmax (time of the maximum concentration in plasma) is shown in Table 6.

E. faecalis HPC975 = test: Antibacterial activity, MIC by agar dilution; assay type: cell-based; settings: Enterococcus faecalis, clinically isolated strain, gram +
Excerpt: as §1
(§3) Enterococcus faecalis (E. faecalis)

E. faecalis HPC948 = test: Antibacterial activity, MIC by agar dilution; assay type: cell-based; settings: Enterococcus faecalis, clinically isolated strain, gram +
Excerpt: as §1, §3

E. faecalis HPC984 = test: Antibacterial activity, MIC by agar dilution; assay type: cell-based; settings: Enterococcus faecalis, clinically isolated strain, gram +
Excerpt: as §1, §3

CHL cells [2] = test: Chromosomal aberration test with a Chinese hamster lung cell line (CHL); assay type: cell-based
Description: The chromosomal aberration test was conducted with a Chinese hamster lung cell line (CHL). 2-(2-Furyl)-3-(5-nitro-2-furyl)acrylamide was used as a positive control. Cells treated with the test compounds were cultured for 6 h at 37° C. in 5% CO2 -humidified air. Following the 6 h treatment the cells were washed. Fresh medium was added to the washed cells and they were cultured for a further 18 h. Colcemide was added to the cultures 2 h before the fixation of chromosome preparation, in order to collect metaphase cells.

A. calcoaceticus HNR916 = test: Antibacterial activity, MIC by agar dilution; assay type: cell-based; settings: Acinetobacter calcoaceticus, clinically isolated strain, gram -
Excerpt: as §1
(§4) Acinetobacter calcoaceticus (A. calcoaceticus)

A. calcoaceticus HNR939 = test: Antibacterial activity, MIC by agar dilution; assay type: cell-based; settings: Acinetobacter calcoaceticus, clinically isolated strain, gram -
Excerpt: as §1, §4

A. calcoaceticus HNR904 = test: Antibacterial activity, MIC by agar dilution; assay type: cell-based; settings: Acinetobacter calcoaceticus, clinically isolated strain, gram -
Excerpt: as §1, §4

K. pneumoniae HNR828 = test: Antibacterial activity, MIC by agar dilution; assay type: cell-based; settings: Klebsiella pneumoniae, clinically isolated strain, gram -
Excerpt: as §1
(§5) Klebsiella pneumoniae (K. pneumoniae)

K. pneumoniae PCI-602 = test: Antibacterial activity, MIC by agar dilution; assay type: cell-based; settings: Klebsiella pneumoniae, PCI602; laboratory standard strain, gram -
Excerpt: as §1, §5

K. pneumoniae HNR869 = test: Antibacterial activity, MIC by agar dilution; assay type: cell-based; settings: Klebsiella pneumoniae, clinically isolated strain, gram -
Excerpt: as §1, §5

K. pneumoniae HNR858 = test: Antibacterial activity, MIC by agar dilution; assay type: cell-based; settings: Klebsiella pneumoniae, clinically isolated strain, gram -
Excerpt: as §1, §5

S. marcescens HNR1767 = test: Antibacterial activity, MIC by agar dilution; assay type: cell-based; settings: Serratia marcescens, clinically isolated strain, gram -
Excerpt: as §1
(§6) Serratia marcescens (S. marcescens)

S. marcescens HNR1792 = test: Antibacterial activity, MIC by agar dilution; assay type: cell-based; settings: Serratia marcescens, clinically isolated strain, gram -
Excerpt: as §1, §6

S. marcescens IAM 1184 = test: Antibacterial activity, MIC by agar dilution; assay type: cell-based; settings: Serratia marcescens, IAM1184; laboratory standard strain, gram -
Excerpt: as §1, §6

S. marcescens HNR1544 = test: Antibacterial activity, MIC by agar dilution; assay type: cell-based; settings: Serratia marcescens, clinically isolated strain, gram -
Excerpt: as §1, §6

E. cloacae HNR1941 = test: Antibacterial activity, MIC by agar dilution; assay type: cell-based; settings: Enterobacter cloacae, clinically isolated strain, gram -
Excerpt: as §1
(§7) Enterobacter cloacae (E. cloacae)

E. cloacae 963 = test: Antibacterial activity, MIC by agar dilution; assay type: cell-based; settings: Enterobacter cloacae, laboratory standard strain, gram -
Excerpt: as §1, §7

E. cloacae HNR1946 = test: Antibacterial activity, MIC by agar dilution; assay type: cell-based; settings: Enterobacter cloacae, clinically isolated strain, gram -
Excerpt: as §1, §7

E. cloacae HNR1939 = test: Antibacterial activity, MIC by agar dilution; assay type: cell-based; settings: Enterobacter cloacae, clinically isolated strain, gram -
Excerpt: as §1, §7

[3] = test system: clinically isolated strains (HPC527, HPC308 and HPC292) of S aureus; test: Comparison with analogous compounds: antibacterial activity (MIC) against clinically isolated strains of S. aureus; assay type: cell-based, Staphylococcus aureus; settings: comparison to Tables 7 and 8
Description: Minimum inhibitory concentrations (MICs) of test compounds were determined by agar dilution procedure as described in the standard method of the Japan Society of Chemotherapy (Chemotherapy (Tokyo), 29,1, 76 (1981)). The strains employed were as follows:
All the data of the antibacterial activity, chromosomal aberration activity, phototoxicity and inducement of convulsions were obtained from the same tests methods as those described above. Among this, the data of the antibacterial activity shown in Tables 7 and 8 are MICs (minimum inhibitory concentrations) value against clinically isolated strains (HPC527, HPC308 and HPC292) of S aureus which is a representative gram-positive bacteria.

[4] = test system: polychromatic erythrocytes (PCEs); test: Micronucleus test, bone marrow of mice; assay type: in vivo, BDF 1 mice; settings: percent of the number of MNPCEs per 1,000 PCEs; 250 mg/kg i.p., 24 h
Description: Nine-week-old male BDF 1 mice were used in this test. The test compounds were injected intraperitoneally with a dose of 250 mg/kg. After 24 h mice were sacrificed and the bone marrow of the femur was collected. Bone marrow smears were fixed on the slides with methanol and stained with Giemsa according to the usual method. For each animal, the number of micronucleated polychromatic erythrocytes (MNPCEs) per 1,000 polychromatic erythrocytes (PCEs) was counted under the microscope. Cyclophosphamide was used as a positive control.

Male Hartley guinea pigs = assay type: in vivo; settings: 10 mg/kg i.v.; for Phototoxicity: number of animals with erythemas/number of animals tested: UVA 90 minutes, 24 h after irradiation; for phototoxicity, in words: UVA
Description: Male Hartley guinea pigs were intravenously administered test compounds at a dose of 10 mg/kg, and immediately exposed to UVA on their backs for 90 minutes.

CHL cells [5] = settings: 31th ICAAC, Abstract No. 1507 (1991); cited from earlier work
[6] = times higher than ciprofloxacin, at Tmax

| Compound | MIC (S. aureus HPC308) | MIC (S. aureus HPC527) | MIC (S. aureus HPC292) | MIC (S. aureus FDA 209P JC-1) | MIC (E. coli NIHJ JC-2) | MIC (E. faecalis HPC975) | MIC (E. faecalis HPC948) | MIC (E. faecalis HPC984) | toxicity (chromosomal aberration), in words (CHL cells [2]) | MIC (A. calcoaceticus HNR916) | MIC (A. calcoaceticus HNR939) | MIC (A. calcoaceticus HNR904) | MIC (K. pneumoniae HNR828) | MIC (K. pneumoniae PCI-602) | MIC (K. pneumoniae HNR869) | MIC (K. pneumoniae HNR858) | MIC (S. marcescens HNR1767) | MIC (S. marcescens HNR1792) | MIC (S. marcescens IAM 1184) | MIC (S. marcescens HNR1544) | also measured |
| --- | --- | --- | --- | --- | --- | --- | --- | --- | --- | --- | --- | --- | --- | --- | --- | --- | --- | --- | --- | --- | --- |
| Cc1c(N2C[C@@H](N)C3(CC3)C2)c(F)c(N)c2c(=O)c(C(=O)O)cn(C3CC3)c12 [Example 10, 5-Amino-7-((S)-7-amino-5-azaspiro[2.4]hept-5-yl)-1-cyclopropyl-6-fluoro-1,4-dihydro-8-methyl-4-oxoquinoline-3-carboxylic acid] | 0.39 µg/mL | 0.025 µg/mL | 1.56 µg/mL | 0.025 µg/mL | 0.012 µg/mL (≈ 0.0311 µM) | 1.56 µg/mL | 0.39 µg/mL | 0.1 µg/mL | did not show | 0.012 µg/mL (≈ 0.0311 µM) | 0.2 µg/mL (≈ 0.518 µM) | 1.56 µg/mL (≈ 4.04 µM) | 3.13 µg/mL (≈ 8.1 µM) | 0.003 µg/mL (≈ 0.00776 µM) | 1.56 µg/mL (≈ 4.04 µM) | 0.2 µg/mL (≈ 0.518 µM) | 6.25 µg/mL (≈ 16.2 µM) | 3.13 µg/mL (≈ 8.1 µM) | 0.1 µg/mL (≈ 0.259 µM) | 0.05 µg/mL (≈ 0.129 µM) | Tmax ([1]; plasma, rat, 5 mg/kg oral): 15 min; Cmax ([1]; plasma, rat, 5 mg/kg oral, read-out: Concentration in plasma at Tmax): 580 ng/mL; Concentration in kidney at Tmax ([1]; rat, 5 mg/kg oral): 8.5 µg/g; Concentration in lung at Tmax ([1]; rat, 5 mg/kg oral): 4.0 µg/g; Kp ([1]; rat, kidney, read-out: concentration ratio (tissue/plasma), kidney): 15; Kp ([1]; rat, lung, read-out: concentration ratio (tissue/plasma), lung): 6.9; a/b: concentration ratio (tissue/plasma) kidney, Example 10/ciprofloxacin [1, 6]: 4.2; a/b: concentration ratio (tissue/plasma) lung, Example 10/ciprofloxacin [1, 6]: 8.6; a/b: kidney concentration, Example 10/ciprofloxacin [1, 6]: 7.4; a/b: lung concentration, Example 10/ciprofloxacin [1, 6]: 16; MIC (E. cloacae HNR1941): 3.13 µg/mL (≈ 8.1 µM); MIC (E. cloacae 963): 0.025 µg/mL (≈ 0.0647 µM); MIC (E. cloacae HNR1946): 0.2 µg/mL (≈ 0.518 µM); MIC (E. cloacae HNR1939): 0.1 µg/mL (≈ 0.259 µM); antibacterial activity compared with reference compound, in words [3]: higher antibacterial activity than the analogous reference compound B; also recorded: excellent antibacterial activity as potent as the analogous reference compound C; also recorded: much higher antibacterial activity than the analogous reference compound I; Incidence of MNPCEs [4]: 0.18%; Phototoxicity: number of animals with erythemas/number of animals tested (Male Hartley guinea pigs): 0/5 |
| Cc1c(N2C[C@@H](N)C3(CC3)C2)c(F)cc2c(=O)c(C(=O)O)cn(C3CC3)c12 [Reference Compound C, 7-((S)-7-amino-5-azaspiro[2.4]hept-5-yl)-1-cyclopropyl-6-fluoro-1,4-dihydro-8-methyl-4-oxoquinoline-3-carboxylic acid] | – | – | – | – | – | – | – | – | observed | – | – | – | – | – | – | – | – | – | – | – | chromosomal aberrational activity, in words (CHL cells [5]): potent chromosomal aberrational activity; phototoxicity, in words (Male Hartley guinea pigs): no phototoxicity; death of guinea pigs (Male Hartley guinea pigs; phototoxicity test): death of one guinea pig out of five |
| Cc1c(N2CC[C@H](N)C2)c(F)c(N)c2c(=O)c(C(=O)O)cn(C3CC3)c12.Cl [Example 12, 5-Amino-7-((S)-3-amino-1-pyrrolidinyl)-1-cyclopropyl-6-fluoro-1,4-dihydro-8-methyl-4-oxoquinoline-3-carboxylic acid hydrochloride] | 0.78 µg/mL | 0.025 µg/mL | 1.56 µg/mL | 0.025 µg/mL | 0.025 µg/mL | 1.56 µg/mL | 0.39 µg/mL | 0.1 µg/mL | did not show | 0.05 µg/mL | 0.78 µg/mL | 12.5 µg/mL | 3.13 µg/mL | 0.006 µg/mL | 1.56 µg/mL | 0.2 µg/mL | 12.5 µg/mL | 1.56 µg/mL | 0.1 µg/mL | 0.05 µg/mL | MIC (E. cloacae HNR1941): 6.25 µg/mL; MIC (E. cloacae 963): 0.025 µg/mL; MIC (E. cloacae HNR1946): 0.2 µg/mL; MIC (E. cloacae HNR1939): 0.2 µg/mL; antibacterial activity compared with reference compound, in words ([3]; hydrochloride): much higher antibacterial activity than the analogous reference compound E; also recorded: higher antibacterial activity than the analogous reference compound F; also recorded: much higher antibacterial activity than the analogous reference compound I; Incidence of MNPCEs [4]: 0.16%; phototoxicity, in words (Male Hartley guinea pigs): did not show; Phototoxicity: number of animals with erythemas/number of animals tested (Male Hartley guinea pigs): 0/5 |
